# Laboratory results as given in patent publication US12629364B2, “Methods of treating cancers overexpressing CARM1 with EZH2 inhibitors and platinum-based antineoplastic drugs” (The Wistar Institute of Anatomy and Biology, priority 2016, dated 2026).
# System: A1847 parental and CARM1 knockout cells
# Test: Epigenetic targeting small molecule set screen (14-day colony formation)
# Assay type: cell-based, Human
# Settings: A1847 parental vs CARM1 knockout; 14 days; normalized to vehicle
# Procedure: FIG. 26 illustrates that CARM1-expressing cells are selectively sensitized to EZH2 inhibitors. Equal number of parental control or CARM1 knockout […] cells were plated and treated with each of the 23 individual epigenetic inhibitors for 14 days. The media with the inhibitors was refreshed every 3 days. Cell growth was quantified as integrated density using NIH Image J software. Quantification of the average integrated density graphed as a scatter plot. The X-axis indicates the relative growth of treated CARM1 high parental […] cells compared with DMSO vehicle controls. Y-axis indicates the relative growth of treated CARM1 knockout […] cells compared with DMSO vehicle controls. n=4; and error bars represents SEM. FIG. 27 illustrates a table of EZH2 inhibitors that are selective against CARM1 expression. CARM1-high parental controls and CARM1 knockout […] cells were treated with the indicated concentration of the small molecules in a 14-day colony formation assay. Integrated density for each well was calculated using NIH Image J software. The relative growth of the indicated cells was determined by normalizing to the vehicle control treated cells. n=4 and p-value was calculated using a two-tailed t-test. FIG. 28 illustrates representative images of colonies formed by the cells treated with the indicated inhibitors. GSK126 and UNC1999 representative positive hits from the screen. […] parental and CARM1 knockout cells were plated in 24-well plates and treated with 24 epigenetic compounds. Cell medium was changed every three days with appropriate drug doses for 14 days or until control wells became confluent. Colonies were washed twice with PBS and fixed with 10% methanol and 10% acetic acid in distilled water. Fixed colonies were stained with 0.005% crystal violet. Integrated density was measured using NIH ImageJ software as a surrogate for cell growth.
compound,measurement,value
"CC[C@H](C)n1cc(C)c2c(C(=O)NCc3c(C)cc(C)[nH]c3=O)cc(-c3ccc(N4CCNCC4)nc3)cc21 [GSK126, (S)-1-(sec-butyl)-N-((4,6-dimethyl-2-oxo-1,2-dihydropyridin-3-yl)methyl)-3-methyl-6-(6-(piperazin-1-yl)pyridin-3-yl)-1H-indole-4-carboxamide]",selective growth suppression of CARM1-expressing versus CARM1 KO cells,showed selectivity against CARM1-expressing cells
